PMC5960991 (Nature chemistry, 2017)

Target: T1, NapT8 (Streptomyces sp. CNQ-525, UniProt A7KH30)
T1 sequence (A7KH30 1-297): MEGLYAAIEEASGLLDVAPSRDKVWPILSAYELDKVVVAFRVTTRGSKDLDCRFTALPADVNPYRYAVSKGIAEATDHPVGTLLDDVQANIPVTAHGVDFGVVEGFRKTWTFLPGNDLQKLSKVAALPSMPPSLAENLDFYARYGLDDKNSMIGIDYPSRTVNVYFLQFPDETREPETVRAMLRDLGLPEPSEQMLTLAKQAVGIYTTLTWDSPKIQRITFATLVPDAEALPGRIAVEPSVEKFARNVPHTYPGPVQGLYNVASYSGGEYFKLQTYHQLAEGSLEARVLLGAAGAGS
Test: reversed-phase HPLC turnover assay
Type: biochemical
Conditions: 34 as prenyl acceptor; MgCl2

## CC(C)=CCOP(=O)(O)OP(=O)(O)O [dimethylallyl pyrophosphate]
  reversed-phase HPLC turnover assay: NapT8 was only active when the isoprenoid DMAPP was utilized
